How the values were obtained:
Syrian golden hamster [1] = experiment: Hypolipidemic activity in high fat diet fed Syrian golden hamster assessed as reduction of glycerol level at 25 mg/kg, po for 7 days; format: functional, Mesocricetus auratus; parameters: scale not given: the % may be the effect or the level left
Syrian golden hamster [2] = experiment: Hypolipidemic activity in high fat diet fed Syrian golden hamster assessed as reduction of triglyceride level at 25 mg/kg, po for 7 days; format: functional, Mesocricetus auratus; parameters: scale not given: the % may be the effect or the level left
Syrian golden hamster [3] = experiment: Hypolipidemic activity in high fat diet fed Syrian golden hamster assessed as reduction of total cholesterol level at 25 mg/kg, po for 7 days; format: functional, Mesocricetus auratus; parameters: scale not given: the % may be the effect or the level left
Syrian golden hamster [4] = experiment: Toxicity in Syrian golden hamster assessed as weight gain at 25 mg/kg, po; format: organism-based, Mesocricetus auratus; parameters: dose 25 mg/kg, route oral; conditions: in vivo
Syrian golden hamster [5] = experiment: Toxicity in Syrian golden hamster assessed as effect of food intake at 25 mg/kg, po; format: organism-based, Mesocricetus auratus; parameters: dose 25 mg/kg, route oral; conditions: in vivo
Syrian golden hamster [6] = experiment: Hypolipidemic activity in high fat diet fed Syrian golden hamster assessed as increase in HDL-cholesterol-total cholesterol ratio at 10 mg/kg, po for 7 days; format: functional, Mesocricetus auratus
Syrian golden hamster [7] = experiment: Hypolipidemic activity in high fat diet fed Syrian golden hamster assessed as reduction of triglyceride level at 5 mg/kg, po for 7 days; format: functional, Mesocricetus auratus; parameters: scale not given: the % may be the effect or the level left
[8] = biological target: T1, 3-hydroxy-3-methylglutaryl-coenzyme A reductase (Homo sapiens, UniProt P04035); experiment: Inhibition of HMG-CoA reductase using HMG-CoA as substrate by spectrophotometry in presence of NADPH
T1 sequence (P04035 whole entry): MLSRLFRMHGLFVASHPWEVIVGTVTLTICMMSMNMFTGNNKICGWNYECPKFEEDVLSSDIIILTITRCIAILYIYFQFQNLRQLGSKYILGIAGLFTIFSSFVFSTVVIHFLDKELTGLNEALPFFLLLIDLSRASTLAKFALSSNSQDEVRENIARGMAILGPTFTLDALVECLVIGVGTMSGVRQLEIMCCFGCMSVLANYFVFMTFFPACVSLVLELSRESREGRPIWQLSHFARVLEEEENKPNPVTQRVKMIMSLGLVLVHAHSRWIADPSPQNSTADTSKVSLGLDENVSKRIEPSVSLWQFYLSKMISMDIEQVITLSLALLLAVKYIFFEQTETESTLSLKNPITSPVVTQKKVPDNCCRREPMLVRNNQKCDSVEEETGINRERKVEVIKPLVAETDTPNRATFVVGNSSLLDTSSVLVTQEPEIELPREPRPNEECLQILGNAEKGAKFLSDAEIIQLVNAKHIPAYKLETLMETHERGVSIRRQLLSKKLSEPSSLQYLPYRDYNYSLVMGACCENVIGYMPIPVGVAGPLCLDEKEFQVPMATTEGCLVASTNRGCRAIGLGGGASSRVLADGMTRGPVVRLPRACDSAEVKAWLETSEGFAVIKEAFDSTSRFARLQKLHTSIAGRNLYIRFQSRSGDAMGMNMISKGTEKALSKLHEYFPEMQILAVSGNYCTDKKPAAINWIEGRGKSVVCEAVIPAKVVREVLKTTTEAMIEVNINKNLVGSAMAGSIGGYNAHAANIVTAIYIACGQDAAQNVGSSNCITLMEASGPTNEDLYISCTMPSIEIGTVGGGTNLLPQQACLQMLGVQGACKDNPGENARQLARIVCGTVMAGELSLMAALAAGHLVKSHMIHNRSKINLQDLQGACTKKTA

Syrian golden hamster [9] = experiment: Hypolipidemic activity in high fat diet fed Syrian golden hamster assessed as increase in HDL-cholesterol-total cholesterol ratio at 100 mg/kg, po for 7 days; format: functional, Mesocricetus auratus
[10] = Tmax in high fat diet fed Syrian golden hamster at 25 mg/kg, po; format: ADME, organism-based, Mesocricetus auratus; parameters: dose 25 mg/kg, route oral; conditions: in vivo
Syrian golden hamster [11] = experiment: Hypolipidemic activity in high fat diet fed Syrian golden hamster assessed as reduction of glycerol level at 10 mg/kg, po for 7 days; format: functional, Mesocricetus auratus; parameters: scale not given: the % may be the effect or the level left
Syrian golden hamster [12] = experiment: Hypolipidemic activity in high fat diet fed Syrian golden hamster assessed as reduction of total cholesterol level at 5 mg/kg, po for 7 days; format: functional, Mesocricetus auratus; parameters: scale not given: the % may be the effect or the level left
Syrian golden hamster [13] = experiment: Hypolipidemic activity in high fat diet fed Syrian golden hamster assessed as reduction of glycerol level at 5 mg/kg, po for 7 days; format: functional, Mesocricetus auratus; parameters: scale not given: the % may be the effect or the level left
Syrian golden hamster [14] = experiment: Hypolipidemic activity in high fat diet fed Syrian golden hamster assessed as reduction of total cholesterol level at 50 mg/kg, po for 7 days; format: functional, Mesocricetus auratus; parameters: scale not given: the % may be the effect or the level left
Syrian golden hamster [15] = experiment: Hypolipidemic activity in high fat diet fed Syrian golden hamster assessed as increase in HDL-cholesterol-total cholesterol ratio at 50 mg/kg, po for 7 days; format: functional, Mesocricetus auratus
[16] = Mean residence time in high fat diet fed Syrian golden hamster at 25 mg/kg, po; format: ADME, organism-based, Mesocricetus auratus; parameters: dose 25 mg/kg, route oral; conditions: in vivo
Syrian golden hamster [17] = experiment: Hypolipidemic activity in high fat diet fed Syrian golden hamster assessed as reduction of triglyceride level at 100 mg/kg, po for 7 days; format: functional, Mesocricetus auratus; parameters: scale not given: the % may be the effect or the level left
Syrian golden hamster [18] = experiment: Hypolipidemic activity in high fat diet fed Syrian golden hamster assessed as increase in HDL-cholesterol-total cholesterol ratio at 25 mg/kg, po for 7 days; format: functional, Mesocricetus auratus
[19] = Apparent oral clearance in high fat diet fed Syrian golden hamster at 25 mg/kg, po; format: ADME, organism-based, Mesocricetus auratus; parameters: dose 25 mg/kg, route oral; conditions: in vivo
Syrian golden hamster [20] = experiment: Hypolipidemic activity in high fat diet fed Syrian golden hamster assessed as reduction of total cholesterol level at 100 mg/kg, po for 7 days; format: functional, Mesocricetus auratus; parameters: scale not given: the % may be the effect or the level left
Syrian golden hamster [21] = experiment: Hypolipidemic activity in high fat diet fed Syrian golden hamster assessed as increase in HDL-cholesterol-total cholesterol ratio at 5 mg/kg, po for 7 days; format: functional, Mesocricetus auratus
Syrian golden hamster [22] = experiment: Hypolipidemic activity in high fat diet fed Syrian golden hamster assessed as reduction of total cholesterol level at 10 mg/kg, po for 7 days; format: functional, Mesocricetus auratus; parameters: scale not given: the % may be the effect or the level left
[23] = Cmax in high fat diet fed Syrian golden hamster at 25 mg/kg, po; format: ADME, organism-based, Mesocricetus auratus; parameters: dose 25 mg/kg, route oral; conditions: in vivo
Syrian golden hamster [24] = experiment: Hypolipidemic activity in high fat diet fed Syrian golden hamster assessed as reduction of triglyceride level at 10 mg/kg, po for 7 days; format: functional, Mesocricetus auratus; parameters: scale not given: the % may be the effect or the level left
Syrian golden hamster [25] = experiment: Hypolipidemic activity in high fat diet fed Syrian golden hamster assessed as reduction of glycerol level at 50 mg/kg, po for 7 days; format: functional, Mesocricetus auratus; parameters: scale not given: the % may be the effect or the level left
Syrian golden hamster [26] = experiment: Apparent volume of distribution in high fat diet fed Syrian golden hamster at 25 mg/kg, po; format: ADME, organism-based, Mesocricetus auratus; parameters: dose 25 mg/kg, route oral; conditions: in vivo
Syrian golden hamster [27] = experiment: Hypolipidemic activity in high fat diet fed Syrian golden hamster assessed as reduction of glycerol level at 100 mg/kg, po for 7 days; format: functional, Mesocricetus auratus; parameters: scale not given: the % may be the effect or the level left
Syrian golden hamster [28] = experiment: Hypolipidemic activity in high fat diet fed Syrian golden hamster assessed as reduction of triglyceride level at 50 mg/kg, po for 7 days; format: functional, Mesocricetus auratus; parameters: scale not given: the % may be the effect or the level left
[29] = AUC (0 to t) in high fat diet fed Syrian golden hamster at 25 mg/kg, po; format: ADME, organism-based, Mesocricetus auratus; parameters: dose 25 mg/kg, route oral; conditions: plasma

CC[C@H](C)C(=O)O[C@H]1C[C@@H](C)C=C2C=C[C@H](C)[C@H](CC[C@@H]3C[C@@H](O)CC(=O)O3)[C@H]21 [LOVASTATIN]
Activity (Syrian golden hamster [1]): 35%
Activity (Syrian golden hamster [2]): 29%
Activity (Syrian golden hamster [3]): 9%

CC1=C(C=O)CC2[C@@]1(C)CC[C@@H](C)[C@]2(C)CCC1=CC(=O)O[C@@H]1O (mixture of isomers)
Activity (Syrian golden hamster [4]): Non-toxic
Activity (Syrian golden hamster [5]): Non-toxic

CC1=CCC[C@@H]2[C@@](C)(CCC3=CC(=O)O[C@@H]3O)[C@H](C)CC[C@@]12C
Activity (Syrian golden hamster [1]): 37%
Ratio (Syrian golden hamster [6]): 12
Activity (Syrian golden hamster [2]): 45%
Activity (Syrian golden hamster [7]): 19%
IC50 [8]: 30.2 µM
Ratio (Syrian golden hamster [9]): 46
Tmax [10]: 0.5 h
Activity (Syrian golden hamster [11]): 5%
Activity (Syrian golden hamster [12]): 27%
Activity (Syrian golden hamster [13]): 10%
Activity (Syrian golden hamster [14]): 55%
Ratio (Syrian golden hamster [15]): 54
MRT [16]: 4.52 h
Activity (Syrian golden hamster [17]): 43%
Ratio (Syrian golden hamster [18]): 48
Activity (Syrian golden hamster [3]): 41%
CL/F [19]: 72.5 mL/min/kg
Activity (Syrian golden hamster [20]): 54%
Activity (Syrian golden hamster [4]): Non-toxic
Ratio (Syrian golden hamster [21]): 12
Activity (Syrian golden hamster [22]): 23%
Activity (Syrian golden hamster [5]): Non-toxic
Cmax [23]: 2490 ng/mL
Activity (Syrian golden hamster [24]): 26%
Activity (Syrian golden hamster [25]): 48%
Vz (Syrian golden hamster [26]): 17.78 L/kg
Activity (Syrian golden hamster [27]): 43%
Activity (Syrian golden hamster [28]): 46%
AUC(0-t) [29]: 5740 ng·h/mL

CC1=CCC[C@@H]2[C@@](C)(CC/C(C=O)=C\C(=O)O)[C@H](C)CC[C@@]12C
Activity (Syrian golden hamster [4]): Non-toxic
Activity (Syrian golden hamster [5]): Non-toxic

C=C1[C@@H](O)CC[C@@H]2[C@@](C)(CCC3=CC(=O)O[C@@H]3O)[C@H](C)CC[C@@]12C
Activity (Syrian golden hamster [4]): Non-toxic
Activity (Syrian golden hamster [5]): Non-toxic
